Measured values published in patent US5393897A, “Isolation and structure of spongistatins 5,7,8 and 9” (Arizona Board of Regents acting on behalf of Arizona State …, priority 1993, dated 1995).
Where two headings read alike, the source gives them in different places.

How the values were obtained:
Type in all cases: cell-based
Melanoma = test: NCI cell line panel, melanoma lines, value not assignable to a single line; details: Homo sapiens, 7 values printed for 8 cell lines, in printed order, read-out: Log10 TGI (converted)
Source text: (§1) Only two hundred years ago, many diseases ravaged humankind. Many of these diseases now have been controlled or eradicated. In the development of the means to treat or control these diseases, work with the appropriate common experimental animals was of critical importance. With the various types of cancers, and with the HIV virus, such work is presently ongoing. The research for the treatment of various types of cancer is coordinated in the United States by the National Cancer Institute (NCI). NCI, as a government entity, has been charged with assisting anti-cancer research. To establish whether a substance has anti-cancer activity, NCI has established a variety of protocols, one of which involves testing the candidate substance against a cell line panel containing 60 human tumor cell lines. This protocol has been verified and is generally accepted throughout the scientific community. This protocol and the established statistical means of evaluating the results obtained therefrom have been fully described in the literature. See Principles & Practice of Oncology PPO Updates, Volume 3, Number 10, October 1989, by Michael R. Boyd, M.D., Ph.D., for an in depth description of the test protocol. […]

HCC-2998 = test: NCI cell line panel; details: Homo sapiens, Colon Cancer, read-out: Log10 GI50 (converted)
Source text: (§2) Only two hundred years ago, many diseases ravaged humankind. Many of these diseases now have been controlled or eradicated. In the development of the means to treat or control these diseases, work with the appropriate common experimental animals was of critical importance. With the various types of cancers, and with the HIV virus, such work is presently ongoing. The research for the treatment of various types of cancer is coordinated in the United States by the National Cancer Institute (NCI). NCI, as a government entity, has been charged with assisting anti-cancer research. To establish whether a substance has anti-cancer activity, NCI has established a variety of protocols, one of which involves testing the candidate substance against a cell line panel containing 60 human tumor cell lines. This protocol has been verified and is generally accepted throughout the scientific community. This protocol and the established statistical means of evaluating the results obtained therefrom have been fully described in the literature. See Principles & Practice of Oncology PPO Updates, Volume 3, Number 10, October 1989, by Michael R. Boyd, M.D., Ph.D., for an in depth description of the test protocol. The statistical analysis is explained in "Display and Analysis of Patterns of Differential Activity of Drugs Against Human Tumor Cell Lines: Development of Means Graph and COMPARE Algorithm" Journal of the National Cancer Institute Reports Vol. 81, No. 14, Pg. 1088, Jul. 14, 1989, by K. D. Paull et al. Both of these references are incorporated herein by this reference thereto. The effectiveness and validity of the NCI in vitro protocol continues to be verified.

OVCAR-8 = test: NCI cell line panel; details: Homo sapiens, Ovarian Cancer, read-out: Log10 GI50 (converted)
Source text: as §2

IGROV1 = test: NCI cell line panel; details: Homo sapiens, IGROV-1, Ovarian Cancer; for GI50: read-out: Log10 GI50 (converted); for IC (TGI): read-out: Log10 TGI (converted)
Source text: as §2

MDA-MB-435 = test: NCI cell line panel; details: Homo sapiens, Breast Cancer, read-out: Log10 GI50 (converted)
Source text: as §2

SF-539 = test: NCI cell line panel; details: Homo sapiens, CNS Cancer, read-out: Log10 GI50 (converted)
Source text: as §2

A498 = test: NCI cell line panel; details: Homo sapiens; for GI50: A498, Renal Cancer, read-out: Log10 GI50 (converted)
Source text: as §2

OVCAR-5 = test: NCI cell line panel; details: Homo sapiens
Source text: as §2

RPMI-8226 = test: NCI cell line panel; details: Homo sapiens, Leukemia, read-out: Log10 GI50 (converted)
Source text: as §2

NCI-H23 = test: NCI cell line panel; details: Homo sapiens, Non-Small Cell Lung Cancer, read-out: Log10 GI50 (converted)
Source text: as §2

OVCAR-4 = test: NCI cell line panel; details: Homo sapiens, Ovarian Cancer, read-out: Log10 GI50 (converted)
Source text: as §2

SNB-19 = test: NCI cell line panel; details: Homo sapiens; for IC (TGI): read-out: Log10 TGI (converted)
Source text: as §2

COLO 205 = test: NCI cell line panel; details: Homo sapiens; for LC50 (50% lethal concentration): COLO 205, read-out: Log10 LC50 (converted); for IC (TGI): read-out: Log10 TGI (converted)
Source text: as §2

M14 = test: NCI cell line panel; details: Homo sapiens, Melanoma, read-out: Log10 GI50 (converted)
Source text: as §2

SW-620 = test: NCI cell line panel; details: Homo sapiens, SW-620, read-out: Log10 GI50 (converted)
Source text: as §2

MOLT-4 = test: NCI cell line panel; details: Homo sapiens, Leukemia, read-out: Log10 GI50 (converted)
Source text: as §2

SK-MEL-2 = test: NCI cell line panel; details: Homo sapiens, Melanoma, read-out: Log10 GI50 (converted)
Source text: as §2

UACC-62 = test: NCI cell line panel; details: Homo sapiens, UACC-62, read-out: Log10 GI50 (converted)
Source text: as §2

SK-MEL-5 = test: NCI cell line panel; details: Homo sapiens, Melanoma, read-out: Log10 GI50 (converted)
Source text: as §2

KM12 = test: NCI cell line panel; details: Homo sapiens, KM12, read-out: Log10 GI50 (converted)
Source text: as §2

CCRF-CEM = test: NCI cell line panel; details: Homo sapiens, Leukemia; for GI50: read-out: Log10 GI50 (converted)
Source text: as §2

HL-60(TB) = test: NCI cell line panel; details: Homo sapiens, Leukemia, read-out: Log10 GI50 (converted)
Source text: as §2

RXF-393 = test: NCI cell line panel; details: Homo sapiens, Renal Cancer; for GI50: read-out: Log10 GI50 (converted)
Source text: as §2

OVCAR-3 = test: NCI cell line panel; details: Homo sapiens, Ovarian Cancer, read-out: Log10 GI50 (converted)
Source text: as §2

SK-MEL-28 = test: NCI cell line panel; details: Homo sapiens, SK-MEL-28, read-out: Log10 GI50 (converted)
Source text: as §2

SF-295 = test: NCI cell line panel; details: Homo sapiens
Source text: as §2

NCI-H460 = test: NCI cell line panel; details: Homo sapiens
Source text: as §2

786-0 = test: NCI cell line panel; details: Homo sapiens, Renal Cancer; for GI50: read-out: Log10 GI50 (converted); for IC (TGI): read-out: Log10 TGI (converted)
Source text: as §2

LOX IMVI = test: NCI cell line panel; details: Homo sapiens, Melanoma
Source text: as §2

Breast Cancer = test: NCI cell line panel, breast cancer line, BT-549 or T-47D not assignable; details: Homo sapiens, last of 7 values for 8 lines, read-out: Log10 GI50 (converted)
Source text: as §1

[1] = read-out: Log10 TGI (converted)

SMILES | GI50 (HCC-2998) [nM] | GI50 (OVCAR-8) [nM] | GI50 (IGROV1) [nM] | IC (TGI) (IGROV1) [µM] | GI50 (SF-539) [nM] | GI50 (A498) [nM] | GI50 (RPMI-8226) [nM] | GI50 (NCI-H23) [nM] | GI50 (OVCAR-4) [nM] | IC (TGI) (SNB-19; SNB-19, CNS Cancer) [µM] | LC50 (50% lethal concentration) (COLO 205) [nM] | IC (TGI) (COLO 205; COLO 205, Colon Cancer) [nM] | GI50 (MOLT-4) [nM] | GI50 (CCRF-CEM) [nM] | GI50 (HL-60(TB)) [nM] | GI50 (RXF-393) [nM] | GI50 (OVCAR-3) [nM] | GI50 (786-0) [nM] | IC (TGI) (786-0) [µM] | other results
C=C/C=C/C(O)CC(=C)CC1OC2C(C)C(OC(=O)CC3CC(O)CC4(CC(C)(O)CC(C=C5COC(C(C)C(=O)CC6CC(OC)CC7(CC(O)CC(/C=C\CCCC8OC(O)(CC(O)C8C)C2O)O7)O6)C5C)O4)O3)C1O (stereo not drawn) [spongistatin 7] | 1.41 | 3.98 | 0.617 | 0.0676 | 0.49 | 2.69 | 0.708 | 0.708 | 24 | 0.1 | 75.9 | 3.8 | 0.575 | 0.24 | 0.0794 | 2.69 | 0.0759 | 2 | 0.1 | IC (TGI) (Melanoma): 0.0468 µM; GI50 (MDA-MB-435): 0.0191 nM; GI50 (OVCAR-5; OVCAR-5, Ovarian Cancer, read-out: Log10 GI50 (converted)): 20.9 nM; GI50 (SNB-19; SNB-19, CNS Cancer, read-out: Log10 GI50 (converted)): 8.32 nM; GI50 (COLO 205; COLO 205, read-out: Log10 GI50 (converted)): 0.331 nM; GI50 (M14): 0.49 nM; GI50 (SW-620): 0.389 nM; GI50 (SK-MEL-2): 0.347 nM; GI50 (UACC-62): 0.309 nM; GI50 (SK-MEL-5): 0.0851 nM; GI50 (KM12): 0.219 nM; IC (TGI) (RXF-393; [1]): 0.1 µM; GI50 (SK-MEL-28): 1.29 nM; GI50 (SF-295; SF-295, read-out: Log10 GI50 (converted)): 0.407 nM; GI50 (NCI-H460; NCI-H460, read-out: Log10 GI50 (converted)): 2.09 nM; IC (TGI) (NCI-H460; NCI-H460, Non-Small Cell Lung Cancer, read-out: Log10 TGI (converted)): 0.1 µM; GI50 (LOX IMVI; read-out: Log10 GI50 (converted)): 0.468 nM; GI50 (Breast Cancer): 100 nM
C=C(Cl)/C=C/C(O)CC(=C)CC1OC2C(C)C(OC(=O)CC3CC(O)CC4(CC(C)(O)CC(C=C5COC(C(C)C(=O)CC6CC(OC)CC7(CC(O)CC(/C=C\CCCC8OC(O)(CC(O)C8C)C2O)O7)O6)C5C)O4)O3)C1O (stereo not drawn) [spongistatin 5] | 0.0631 | 0.257 | 0.141 | 0.0955 | 0.0229 | 0.0257 | 0.0129 | 0.0347 | 14.1 | 0.1 | 7.94 | 0.871 | 0.0372 | 0.017 | 0.0129 | 0.0417 | 0.0151 | 0.0251 | 0.0012 | LC50 (50% lethal concentration) (A498; A498, read-out: Log10 LC50 (converted)): 87.1 nM; GI50 (OVCAR-5; OVCAR-5, read-out: Log10 GI50 (converted)): 4.07 nM; GI50 (SNB-19; SNB-19, read-out: Log10 GI50 (converted)): 0.407 nM; GI50 (COLO 205; COLO 205, Colon Cancer, read-out: Log10 GI50 (converted)): 0.0129 nM; IC (TGI) (CCRF-CEM; [1]): 4.17 nM; GI50 (SF-295; SF-295, CNS Cancer, read-out: Log10 GI50 (converted)): 0.011 nM; IC (TGI) (LOX IMVI; [1]): 0.011 µM
